Test systems include K-562 leukemia; MDA-MB-231 breast; NCI-H460 lung; OVCAR-3 ovarian; OVCAR-4 ovarian; OVCAR-8 ovarian; PC-3 prostate; T-47D breast; TK-10 renal; UACC-62 melanoma.
Assay in all cases: NCI-60 cell line screen, 48 h

SMILES strings stand for the structures. Values joined by “and” are separate entries in the source; they are usually repeats but may differ in a detail not shown here. Equal entries are not always repeated.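 96-well plates; 48 h exposure; 5 concentrations. Endpoints by linear interpolation between flanking doses. Not reached: highest tested concentration assigned. GI50 = concentration required for 50% inhibition of growth. TGI is the concentration that stops growth completely.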 Where a SMILES comes first, the peptide text is derived from it. [ ]: non-standard residue; d: D form. Orn = NCCC[CH](N)C(=O)O

Take `CCCNNC(=O)c1ccc(CNC(=O)/C=C/c2ccccc2)cc1`: the GI50 is 73.2 nM with K-562 leukemia; 348 nM in the test with MDA-MB-231 breast; 286 nM in the test with NCI-H460 lung; 246 nM in the test with OVCAR-3 ovarian; 375 nM with OVCAR-4 ovarian; 114 nM in the test with OVCAR-8 ovarian. Moreover, the GI50 is 173 nM in the test on PC-3 prostate, 130 nM in the test with T-47D breast, 34.3 nM with TK-10 renal and 82.5 nM in the test with UACC-62 melanoma. The TGI with K-562 leukemia was greater than 100 µM; with MDA-MB-231 breast, greater than 100 µM; in the test with NCI-H460 lung, greater than 100 µM; in the test with OVCAR-3 ovarian, 1.8 µM; in the test with OVCAR-4 ovarian it was greater than 100 µM; in the test on OVCAR-8 ovarian it was greater than 100 µM. Further, the TGI is greater than 100 µM in the test on PC-3 prostate, 0.715 µM in the test on T-47D breast, 0.577 µM in the test on TK-10 renal and 0.249 µM in the test with UACC-62 melanoma.
Consider `COC1(C)Cc2c(c(C)c(O)c3c2C(=O)C=C(Cl)C3=O)O1` (centres undefined), for which the TGI in the test with K-562 leukemia was 36.8 µM; in the test with MDA-MB-231 breast, 39.9 µM; in the test on NCI-H460 lung, greater than 100 µM; in the test with OVCAR-3 ovarian, greater than 72.8 µM; in the test with OVCAR-4 ovarian, greater than 86.8 µM; in the test with OVCAR-8 ovarian, greater than 73.6 µM. Moreover, the TGI was greater than 100 µM in the test on PC-3 prostate, 36.7 µM in the test on T-47D breast, 45.6 µM in the test with TK-10 renal and greater than 87.5 µM in the test on UACC-62 melanoma.
Take `CC(C)CC1NC(=O)C(CCCN)NC(=O)C(C(C)C)NC(=O)C2CCCN2C(=O)C(Cc2ccccc2)NC(=O)C(CC(C)C)NC(=O)C(CCCN)NC(=O)C(C(C)C)NC(=O)C2CCCN2C(=O)C(Cc2ccccc2)NC1=O` (centres undefined) (cyclo(FPV[Orn]LFPV[Orn]L); configuration not given here): the GI50 in the test with K-562 leukemia is less than 3.25 nM; with MDA-MB-231 breast it was 20.9 nM and 24.2 nM; with NCI-H460 lung it was 11.1 nM and 28.7 nM; with OVCAR-3 ovarian, 10.3 nM and 32.2 nM; in the test on OVCAR-4 ovarian it was 13.3 nM; in the test with OVCAR-8 ovarian, 11.3 nM and 25.2 nM. Besides, the GI50 in the test on PC-3 prostate was 7.03 nM; in the test with T-47D breast, less than 3.25 nM; with TK-10 renal, 21.3 nM and 104 nM; in the test with UACC-62 melanoma, < 12.3 nM and 31.5 nM. Besides, the TGI with K-562 leukemia was 0.0565 µM; in the test with MDA-MB-231 breast, 0.146 µM and 0.0877 µM; in the test with NCI-H460 lung, 0.0385 µM and 0.107 µM; in the test on OVCAR-3 ovarian, 0.211 µM and 1.43 µM; in the test with OVCAR-8 ovarian, 0.591 µM and 1.32 µM; with PC-3 prostate, 0.14 µM and 1.12 µM. In addition, the TGI is 0.433 µM and 1.24 µM with T-47D breast; 1.51 µM and 5.71 µM with TK-10 renal; 0.443 µM and 1.26 µM with UACC-62 melanoma.
For the compound `O=C(O)c1cn(C2CC2)c2cc(N3CCN(C(=O)Nc4nc(-c5ccc(Cl)cc5)cs4)CC3)c(F)cc2c1=O`, the GI50 was 2240 nM in the test on K-562 leukemia; 3630 nM in the test with MDA-MB-231 breast; 1760 nM in the test with NCI-H460 lung; 2380 nM in the test on OVCAR-3 ovarian; 3610 nM in the test with OVCAR-4 ovarian; 1860 nM in the test with OVCAR-8 ovarian. The GI50 was 2700 nM in the test on PC-3 prostate, 1650 nM in the test with T-47D breast, 4110 nM with TK-10 renal and 2400 nM in the test on UACC-62 melanoma. Moreover, the TGI in the test on K-562 leukemia is greater than 100 µM; with MDA-MB-231 breast, greater than 100 µM; with NCI-H460 lung, greater than 100 µM; in the test with OVCAR-3 ovarian, 34.6 µM; in the test on OVCAR-4 ovarian it was greater than 100 µM; in the test on OVCAR-8 ovarian, 50.9 µM. Besides, the TGI in the test with PC-3 prostate was greater than 100 µM; in the test with T-47D breast, greater than 100 µM; with TK-10 renal, greater than 100 µM; with UACC-62 melanoma it was 37.9 µM.
With `O=C1C=CC(=O)N1CCCCCCCCCCN1C(=O)C=CC1=O`, the GI50 in the test on K-562 leukemia is 7630 nM; in the test with MDA-MB-231 breast, 15700 nM; in the test on NCI-H460 lung, 33300 nM; in the test on OVCAR-3 ovarian, 4100 nM; in the test on OVCAR-4 ovarian, 8380 nM; in the test with OVCAR-8 ovarian, 13900 nM. The GI50 in the test with PC-3 prostate was 18100 nM; in the test with T-47D breast it was 15300 nM; in the test on TK-10 renal, 22900 nM; with UACC-62 melanoma, 14800 nM. Besides, the TGI in the test on K-562 leukemia was 67.9 µM; in the test with MDA-MB-231 breast, 29.5 µM; in the test with NCI-H460 lung it was greater than 100 µM; in the test on OVCAR-3 ovarian, 15.1 µM; in the test on OVCAR-4 ovarian it was 24.8 µM; in the test with OVCAR-8 ovarian, 44 µM. In addition, the TGI was 36.5 µM in the test with PC-3 prostate, 40.7 µM with T-47D breast, 69 µM with TK-10 renal and 28.2 µM with UACC-62 melanoma.
As to `COc1ccc(-c2oncc2-c2cc(OC)c3c(c2)OCO3)cc1`, the GI50 was 441 nM in the test with K-562 leukemia; 2800 nM with MDA-MB-231 breast; 3580 nM in the test with NCI-H460 lung; 3150 nM in the test with OVCAR-3 ovarian; 10000 nM with OVCAR-4 ovarian; 4860 nM in the test on OVCAR-8 ovarian. Besides, the GI50 in the test on PC-3 prostate is 2990 nM; in the test on T-47D breast, 4290 nM; in the test on TK-10 renal it was 7300 nM; in the test with UACC-62 melanoma, 2850 nM. Further, the TGI in the test on K-562 leukemia is greater than 100 µM; with MDA-MB-231 breast, 54 µM; in the test with NCI-H460 lung it was greater than 100 µM; in the test with OVCAR-3 ovarian it was 39 µM; in the test on OVCAR-4 ovarian it was greater than 100 µM; in the test on OVCAR-8 ovarian, greater than 100 µM. Besides, the TGI is greater than 66.1 µM in the test with PC-3 prostate, greater than 100 µM with T-47D breast, greater than 100 µM in the test with TK-10 renal and 57.7 µM in the test with UACC-62 melanoma.
As to `COc1ccc2oc(-c3ccc(Cl)cc3)c(N3CCN(C)CC3)c2c1`, the GI50 in the test with K-562 leukemia is 3380 nM; with MDA-MB-231 breast, 1640 nM; in the test with NCI-H460 lung, 1940 nM; in the test with OVCAR-3 ovarian, 1950 nM; with OVCAR-4 ovarian it was 2120 nM; in the test on OVCAR-8 ovarian it was 1900 nM. The GI50 with PC-3 prostate is 1690 nM; with T-47D breast, 2320 nM; in the test on TK-10 renal, 1830 nM; with UACC-62 melanoma, 1730 nM. In addition, the TGI in the test on K-562 leukemia was greater than 100 µM; with MDA-MB-231 breast, 3.27 µM; in the test with NCI-H460 lung it was 4.16 µM; with OVCAR-3 ovarian it was 4.37 µM; in the test with OVCAR-4 ovarian, 7.22 µM; in the test on OVCAR-8 ovarian, 3.94 µM. The TGI was 5.54 µM with PC-3 prostate, 6.78 µM in the test on T-47D breast, 3.58 µM with TK-10 renal and 3.44 µM in the test on UACC-62 melanoma.
In the case of `O=C(/C=C/c1ccc2c(c1)OCO2)c1ccccc(=O)c1O`, the TGI in the test on K-562 leukemia was greater than 100 µM; in the test on MDA-MB-231 breast, greater than 100 µM; in the test with NCI-H460 lung, 41.7 µM; with OVCAR-3 ovarian, greater than 100 µM; in the test with OVCAR-4 ovarian, greater than 100 µM; with OVCAR-8 ovarian it was 54.2 µM. In addition, the TGI in the test on PC-3 prostate was greater than 100 µM; with T-47D breast, 64.6 µM; in the test on TK-10 renal, 43.5 µM; in the test with UACC-62 melanoma, 29.2 µM.

The record behind these values is PubChem BioAssay (NCI).
